According to ChEMBL document CHEMBL1201862, “PubChem BioAssay data set” (2004):
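96-well plates; 48 h exposure; 5 concentrations. Endpoints by linear interpolation between flanking doses. Not reached: highest tested concentration assigned. The concentration for 50% growth inhibition is given as GI50.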 Active and inactive are the calls of the source. Rule as the data show it: active = GI50 up to about 1.1 µM and inactive = higher.

Experiments:
Experiment in all cases: NCI tumour cell line growth inhibition, 48 h
A498 = test system: A498
CAKI-1 = test system: CAKI-1
CCRF-CEM = test system: CCRF-CEM
COLO 205 = test system: COLO 205
EKVX = test system: EKVX
HCT-116 = test system: HCT-116
HOP-62 = test system: HOP-62
IGROV-1 = test system: IGROV-1
LOX IMVI = test system: LOX IMVI
MCF7 = test system: MCF7
MOLT-4 = test system: MOLT-4
NCI-H460 = test system: NCI-H460
NCI/ADR-RES = test system: NCI/ADR-RES
OVCAR-3 = test system: OVCAR-3
SF-539 = test system: SF-539
SK-MEL-28 = test system: SK-MEL-28
SK-MEL-5 = test system: SK-MEL-5
SK-OV-3 = test system: SK-OV-3
SN12C = test system: SN12C
U-251 = test system: U-251

Measured: GI50

O=c1cc(-c2cc(O)c(O)c(-c3c(O)cc4oc(-c5ccc(O)c(O)c5)cc(=O)c4c3O)c2)oc2cc(O)cc(O)c12
inactive: A498 > 25 µM | CAKI-1 > 25 µM | CCRF-CEM > 25 µM | COLO 205 > 25 µM | EKVX > 25 µM | HCT-116 17.5 µM | HOP-62 > 25 µM | IGROV-1 > 25 µM | LOX IMVI > 25 µM | MCF7 > 25 µM | MOLT-4 > 25 µM | NCI-H460 > 25 µM | NCI/ADR-RES > 25 µM | OVCAR-3 > 25 µM | SF-539 > 25 µM | SK-MEL-28 > 25 µM | SK-MEL-5 > 25 µM | SK-OV-3 > 25 µM | SN12C > 25 µM | U-251 19.2 µM

O=P1(c2ccccc2)Nc2ccccc2SSc2ccccc2N1
inactive: A498 20.4 µM | CAKI-1 18.2 µM | CCRF-CEM 12.1 µM | COLO 205 20 µM | EKVX 15.2 µM | HCT-116 16.8 µM | HOP-62 > 10 µM | IGROV-1 19.7 µM | LOX IMVI 16.2 µM | MCF7 16.7 µM | MOLT-4 18.7 µM | NCI-H460 18.4 µM | NCI/ADR-RES 19.9 µM | OVCAR-3 15.1 µM | SF-539 19.9 µM | SK-MEL-28 18.7 µM | SK-MEL-5 16.9 µM | SK-OV-3 25.5 µM | SN12C 17.8 µM | U-251 16.7 µM

NNC(=O)CCc1ccc2ccc3ccccc3c2c1
inactive: A498 49.2 µM | CAKI-1 54.3 µM | CCRF-CEM > 100 µM | COLO 205 > 100 µM | EKVX 16.4 µM | HCT-116 > 100 µM | HOP-62 > 100 µM | IGROV-1 > 100 µM | LOX IMVI 98.9 µM | MCF7 > 100 µM | MOLT-4 63.5 µM | NCI-H460 > 100 µM | NCI/ADR-RES 89.1 µM | OVCAR-3 29.9 µM | SF-539 54.6 µM | SK-MEL-28 > 100 µM | SK-MEL-5 92.3 µM | SK-OV-3 > 100 µM | SN12C 68.1 µM | U-251 > 100 µM

COC(=O)[C@@H]1C=C[C@H](NC(C)=O)C1
inactive: A498 > 100 µM | CAKI-1 > 100 µM | CCRF-CEM > 100 µM | COLO 205 > 100 µM | HCT-116 > 100 µM | HOP-62 > 100 µM | IGROV-1 > 100 µM | LOX IMVI > 100 µM | MCF7 > 100 µM | MOLT-4 > 100 µM | NCI-H460 > 100 µM | NCI/ADR-RES > 100 µM | OVCAR-3 > 100 µM | SK-MEL-28 > 100 µM | SK-MEL-5 > 100 µM | SK-OV-3 > 100 µM | SN12C > 100 µM | U-251 > 100 µM

C=CCC(O[Si](C)(C)C(C)(C)C)c1cc(O[Si](C)(C)C(C)(C)C)ccc1OC (stereo not drawn)
inactive: A498 46.9 µM | CAKI-1 40.7 µM | CCRF-CEM > 100 µM | COLO 205 > 83 µM | EKVX > 100 µM | HCT-116 > 80.7 µM | HOP-62 > 100 µM | IGROV-1 > 100 µM | LOX IMVI > 94.2 µM | MCF7 51.1 µM | MOLT-4 > 70.8 µM | NCI-H460 > 70 µM | NCI/ADR-RES > 64.7 µM | OVCAR-3 > 54.6 µM | SF-539 99.3 µM | SK-MEL-28 > 81.8 µM | SK-MEL-5 > 61.1 µM | SK-OV-3 > 62.4 µM | SN12C > 87.3 µM | U-251 > 71.6 µM

Oc1ccc(NCn2c(=S)sc3ccccc32)cc1
inactive: A498 > 100 µM | CAKI-1 > 100 µM | CCRF-CEM 32 µM | COLO 205 > 100 µM | EKVX > 100 µM | HCT-116 > 100 µM | HOP-62 > 100 µM | IGROV-1 33.2 µM | LOX IMVI > 100 µM | MCF7 92.9 µM | MOLT-4 34.2 µM | NCI-H460 > 100 µM | NCI/ADR-RES > 100 µM | OVCAR-3 97.9 µM | SF-539 > 100 µM | SK-MEL-28 > 100 µM | SK-MEL-5 > 100 µM | SK-OV-3 > 100 µM | SN12C > 100 µM | U-251 > 100 µM

Cc1ccc2oc3c(ccc(=O)n3C)c(=O)c2c1
inactive: A498 > 100 µM | CAKI-1 > 100 µM | CCRF-CEM > 100 µM | COLO 205 > 100 µM | EKVX 89.7 µM | HCT-116 > 100 µM | HOP-62 > 100 µM | IGROV-1 > 100 µM | LOX IMVI > 100 µM | MCF7 > 100 µM | NCI-H460 > 100 µM | NCI/ADR-RES > 100 µM | OVCAR-3 > 100 µM | SF-539 > 100 µM | SK-MEL-28 > 100 µM | SK-MEL-5 > 100 µM | SK-OV-3 > 100 µM | SN12C > 100 µM | U-251 > 100 µM

CC(C)(C)[Si](C)(C)OCC1OC(n2cnc3c(N)ncnc32)CC1OS(C)(=O)=O (stereo not drawn)
inactive: A498 43 µM | CAKI-1 > 100 µM | CCRF-CEM > 100 µM | COLO 205 > 100 µM | HCT-116 72.1 µM | HOP-62 45.8 µM | IGROV-1 > 100 µM | LOX IMVI > 100 µM | MCF7 > 100 µM | MOLT-4 > 100 µM | NCI-H460 > 100 µM | NCI/ADR-RES > 100 µM | OVCAR-3 27.4 µM | SK-MEL-28 > 100 µM | SK-OV-3 > 100 µM | SN12C > 100 µM | U-251 > 100 µM

COC(=O)c1ccccc1/N=C(/NC1CCCCCC1)NS(=O)(=O)c1ccc(C)cc1
inactive: A498 > 100 µM | CAKI-1 74.5 µM | CCRF-CEM > 100 µM | COLO 205 > 100 µM | EKVX > 100 µM | HCT-116 > 100 µM | HOP-62 99.3 µM | IGROV-1 > 100 µM | LOX IMVI > 100 µM | MCF7 99.1 µM | MOLT-4 > 100 µM | NCI-H460 > 100 µM | NCI/ADR-RES > 100 µM | OVCAR-3 > 100 µM | SF-539 > 100 µM | SK-MEL-28 > 100 µM | SK-MEL-5 > 100 µM | SK-OV-3 > 100 µM | SN12C > 100 µM | U-251 > 100 µM

COc1cc(/C=C2\N=C(c3ccccc3)N(c3ccc(C(=O)c4ccccc4)cc3N3C(=O)/C(=C/c4cc(OC)c(OC)c(OC)c4)N=C3c3ccccc3)C2=O)cc(OC)c1OC
inactive: A498 12 µM | CAKI-1 22.2 µM | CCRF-CEM 5.31 µM | COLO 205 16.4 µM | EKVX 24.8 µM | HCT-116 10.6 µM | HOP-62 20.7 µM | IGROV-1 15.7 µM | LOX IMVI 14.3 µM | MCF7 12.6 µM | MOLT-4 4.97 µM | NCI-H460 8.49 µM | NCI/ADR-RES 7.8 µM | OVCAR-3 2.08 µM | SK-MEL-28 18.7 µM | SK-MEL-5 9.33 µM | SK-OV-3 13.3 µM | SN12C 23.1 µM | U-251 18.7 µM
